pIC50: −log10 of the molar value.
Columns and labels:
Type in all cases: cell-based
HBsAg = test: PHH HBV natural infection assay, HBsAg (alphalisa); settings: Hepatitis B virus, Hepatocyte, 72 h, read-out: HBsAg IC50
Protocol: (§1) Detailed procedures regarding primary human hepatocyte (PHH) HBV natural infection assay are described as below. One tube of frozen PHH (10 million cells) is thawed in 37° C. water bath and then transferred to 20 mL of PHH thawing medium (Sigma, InVitroGRO HT Medium, Cat. S03319) with gently mixing. The cells were then centrifuged at […] for 5 min, the supernatant was discarded and the tube was refilled with 25 mL of PHH plating medium (Sigma, InVitroGRO CP Medium, Cat. 503317). The tube was shaken very gently to re-suspend all cells. 50 μl of cells were transferred to each well 384-well collagen I coated plate with appropriate liquid handling equipment, e.g. Integra VIAFLO384 or Agilent Bravo. The cells were then cultured for 24 hours in a cell incubator. For HBV infection, after PHH attachment on the culture plate, the plating medium was removed and replenished with PHH culture medium containing HBV virus. The PHH culture medium was prepared with Dulbecco's Modified Eagle Medium (DMEM)/F12 (1:1 in volume ratio) containing 10% fetal bovine serum (Gibco, Cat. 10099141), […] (Gibco, Cat. PHG03I1L), 20 ng/mL dexamethasone (Sigma, Cat. D4902-100 mg), 250 ng/mL human recombinant insulin (Gibco, Cat. 41400045) and 100 U/mL penicillin. HBV virus at 200 genome equivalent (GE) per cell with 4% PEG8000 (Sigma, Cat. P1458) containing culture medium were added to the PHH culture medium for infection. The cells were then cultured for 24 hours in cell incubator. Then the cell culture supernatant was removed. The HBV-infected PHH were cultured with sandwich culture method with PHH culture medium containing 1% DMSO and 0.25 mg/mL matrix gel for 72 hours. The supernatant was then refreshed with PHH culture medium containing different concentrations of testing compounds for two times with 72-hour interval. At the end of treatment, the supernatant was collected for viral markers measurements, including HBsAg, HBeAg, HBV DNA and cytotoxicity. HBsAg and HBeAg were detected using alphalisa method using their specific antibodies. For HBV DNA detection, HBV DNA Quantitative Fluorescence Diagnostic Kit (Sansure Biotech Inc.) was used following the manufacture's protocol. Cytotoxicity was determined using Cell Counting Kit-8 (CCK8, Dojindo Molecular Technologies, Inc.).
(§2) The compounds of the present invention were tested for their capacity to inhibit HBsAg and HBeAg as described herein.

HBeAg = test: PHH HBV natural infection assay, HBeAg (alphalisa); settings: Hepatitis B virus, Hepatocyte, 72 h, read-out: HbeAg IC50
Protocol: as §1, §2

[1] = Cytotoxicity in PHH natural infection assay (Cell Counting Kit-8); settings: HBV-infected primary human hepatocytes, CCK8
Protocol: as §1

With `CS(=O)(=O)Cc1ccc(C(=O)NC23CC(c4nc5cnc(Cl)cc5o4)(C2)C3)o1` [Example 43, N-[3-(6-chlorooxazolo[4,5-c]pyridin-2-yl)-1-bicyclo[1.1.1]pentanyl]-5-(methylsulfonylmethyl)furan-2-carboxamide] the pIC50 (HBsAg) was 5.12, the pIC50 (HBeAg) was 5.26 and the CC50 at 144 h [1] was > 10 µM.
With `CS(=O)(=O)c1ccc(C(=O)NC23CC(c4nc5cccc(Cl)c5o4)(C2)C3)o1` [Example 44, N-[3-(7-chloro-1,3-benzoxazol-2-yl)-1-bicyclo[1.1.1]pentanyl]-5-methylsulfonyl-furan-2-carboxamide] the pIC50 (HBsAg) was 5.05, the pIC50 (HBeAg) was 5.51 and the CC50 at 144 h [1] was > 100 µM.
For `CS(=O)(=O)c1ccc(C(=O)NC23CC(c4nc5ccc(F)cc5o4)(C2)C3)o1` [Example 45, N-[3-(6-fluoro-1,3-benzoxazol-2-yl)-1-bicyclo[1.1.1]pentanyl]-5-methylsulfonyl-furan-2-carboxamide], the pIC50 (HBsAg) was 5.06, the pIC50 (HBeAg) was 5.35 and the CC50 at 144 h [1] was > 100 µM.
Work on `CS(=O)(=O)c1ccc(C(=O)NC23CCC(c4nc5cc(Cl)ccc5o4)(CC2)C3)o1` [Example 46, N-[4-(5-chloro-1,3-benzoxazol-2-yl)norbornan-1-yl]-5-methylsulfonyl-furan-2-carboxamide] yielded a pIC50 (HBsAg) of 5.15, a pIC50 (HBeAg) of 5.35 and a CC50 at 144 h [1] of 76.6 µM.
For `O=C(NC12CCC(c3nc4cc(Cl)ccc4o3)(CC1)CC2)c1ccc(C(F)(F)F)o1` [Example 47, N-[4-(5-chloro-1,3-benzoxazol-2-yl)-1-bicyclo[2.2.2]octanyl]-5-(trifluoromethyl)furan-2-carboxamide], the pIC50 (HBsAg) was 5.11, the pIC50 (HBeAg) was 5.41 and the CC50 at 144 h [1] was > 100 µM.
With `O=C(NC12CCC(c3nc4cc(Cl)ccc4o3)(CC1)CC2)C1CC2(C1)CS(=O)(=O)C2` [Example 48, N-[4-(5-chloro-1,3-benzoxazol-2-yl)-1-bicyclo[2.2.2]octanyl]-2,2-dioxo-2lambda6-thiaspiro[3.3]heptane-6-carboxamide] the pIC50 (HBsAg) was 5.77, the pIC50 (HBeAg) was 5.99 and the CC50 at 144 h [1] was > 100 µM.
In the case of `O=C(NC12CCC(c3nc4cc(Cl)ccc4o3)(CC1)CC2)C1CCCS1(=O)=O` (stereo not drawn) [Example 49, N-[4-(5-chloro-1,3-benzoxazol-2-yl)-1-bicyclo[2.2.2]octanyl]-1,1-dioxo-thiolane-2-carboxamide], the pIC50 (HBsAg) was 5.56, the pIC50 (HBeAg) was 5.90 and the CC50 at 144 h [1] was > 100 µM.
With `O=C(NC12CCC(c3nc4cc(Cl)ccc4o3)(CC1)CC2)C1CCS(=O)(=O)C1` (stereo not drawn) [Example 50, N-[4-(5-chloro-1,3-benzoxazol-2-yl)-1-bicyclo[2.2.2]octanyl]-1,1-dioxo-thiolane-3-carboxamide] the pIC50 (HBsAg) was 5.38, the pIC50 (HBeAg) was 5.29 and the CC50 at 144 h [1] was > 100 µM.
In the case of `CC1(C(=O)NC23CCC(c4nc5cc(Cl)ccc5o4)(CC2)CC3)CCS(=O)(=O)C1` (stereo not drawn) [Example 51, N-[4-(5-chloro-1,3-benzoxazol-2-yl)-1-bicyclo[2.2.2]octanyl]-3-methyl-1,1-dioxo-thiolane-3-carboxamide], the pIC50 (HBsAg) was 5.04, the pIC50 (HBeAg) was 5.31 and the CC50 at 144 h [1] was > 100 µM.
In the case of `O=C(NC12CCC(c3nc4cc(Cl)ccc4o3)(CC1)CC2)C1CCCS(=O)(=O)C1` (stereo not drawn) [Example 52, N-[4-(5-chloro-1,3-benzoxazol-2-yl)-1-bicyclo[2.2.2]octanyl]-1,1-dioxo-thiane-3-carboxamide], the pIC50 (HBsAg) was 5.56, the pIC50 (HBeAg) was 5.98 and the CC50 at 144 h [1] was > 100 µM.
For `O=C(CC1CCCS1(=O)=O)NC12CCC(c3nc4cc(Cl)ccc4o3)(CC1)CC2` (stereo not drawn) [Example 53, N-[4-(5-chloro-1,3-benzoxazol-2-yl)-1-bicyclo[2.2.2]octanyl]-2-(1,1-dioxothiolan-2-yl)acetamide], the pIC50 (HBsAg) was 5.64, the pIC50 (HBeAg) was 5.73 and the CC50 at 144 h [1] was > 100 µM.
Work on `O=C(CC1CCCS(=O)(=O)C1)NC12CCC(c3nc4cc(Cl)ccc4o3)(CC1)CC2` (stereo not drawn) [Example 54, N-[4-(5-chloro-1,3-benzoxazol-2-yl)-1-bicyclo[2.2.2]octanyl]-2-(1,1-dioxothian-3-yl)acetamide] yielded a pIC50 (HBsAg) of 5.47, a pIC50 (HBeAg) of 5.49 and a CC50 at 144 h [1] of 43.9 µM.
In the case of `O=C(CN1CCCCS1(=O)=O)NC12CCC(c3nc4cc(Cl)ccc4o3)(CC1)CC2` [Example 55, N-[4-(5-chloro-1,3-benzoxazol-2-yl)-1-bicyclo[2.2.2]octanyl]-2-(1,1-dioxothiazinan-2-yl)acetamide], the pIC50 (HBsAg) was 5.69, the pIC50 (HBeAg) was 6.05 and the CC50 at 144 h [1] was > 100 µM.

Reference: patent publication US20230286929A1, “AROMATIC BRIDGED RING AMIDE DERIVATIVES FOR THE TREATMENT AND PROPHYLAXIS OF HEPATITIS B VIRUS INFECTION” (Hoffmann-La Roche Inc., priority 2020, published 2023)
